Test results taken from paper PMC6917776, “Discovery of a chemical probe for PRDM9” (Nature Communications, 2019).
Like-named read-outs stand apart in the source and are kept apart here.

Assay: CelltiterGlo viability cell assay
Format: cell-based
Settings: human
Protocol: Supplementary Figure 13. […] Viability of
(a) Multiple Myeloma lines and (b) Breast Cancer cell lines following 3 or 6 days treatment with […]
manufacturer’s instructions as described in the Supplementary methods. Data are normalized to DMSO control. N=3 biological replicates, +/- SEM. Source data are provided as a Source Data […]
CelltiterGlo viability cell assay
Cells were seeded in 96 well plates at per-well densities of 10000 (MDA-MB436, ATCC-HTB130), 15000 (8226, kind gift from Rodger Tiedemann, Princess Margaret Cancer Centre), […]
kind gift from Rodger Tiedemann, Princess Margaret Cancer Centre) and 50000 (CAL851, kind gift from Mathieu Lupien, Princess Margaret Cancer Centre) and were treated at increasing concentrations of compounds ranging from 0.01 μM to 30 μM and assessed for proliferation using CelltiterGlo (Promega) following manufacturer’s instructions, as readout on days 3 and 6 as indicated. All cell lines were mycoplasma negative, as determined by MycoAlert™ Mycoplasma Detection Kit(Lonza). […]

[1] = HCC1143 breast cancer cells, HCC1143, 6 day, read-out: viability Replicate 3
[2] = HCC1143 breast cancer cells, HCC1143, 6 day, read-out: viability Average
[3] = HCC1143 breast cancer cells, HCC1143, 6 day, read-out: viability Replicate 1
[4] = HCC1143 breast cancer cells, HCC1143, 6 day, read-out: viability Replicate 2
[5] = HCC1806 breast cancer cells, HCC1806, 3 day, read-out: viability Average
[6] = HCC1806 breast cancer cells, HCC1806, 3 day, read-out: viability Replicate 1
[7] = HCC1806 breast cancer cells, HCC1806, 3 day, read-out: viability Replicate 2
[8] = HCC1806 breast cancer cells, HCC1806, 3 day, read-out: viability Replicate 3
[9] = HCC1806 breast cancer cells, HCC1806, 6 day, read-out: viability Average
[10] = HCC1806 breast cancer cells, HCC1806, 6 day, read-out: viability Replicate 1
[11] = HCC1806 breast cancer cells, HCC1806, 6 day, read-out: viability Replicate 2
[12] = HCC1806 breast cancer cells, HCC1806, 6 day, read-out: viability Replicate 3
[13] = HCC1806 cells, HCC1806, 3 day, read-out: viability Average
[14] = HCC1806 cells, HCC1806, 3 day, read-out: viability Replicate 1
[15] = HCC1806 cells, HCC1806, 3 day, read-out: viability Replicate 2
[16] = HCC1806 cells, HCC1806, 3 day, read-out: viability Replicate 3

Structure (SMILES): COc1cc(OC)cc(-c2noc(N3CCN(C)C4(CCN(c5ccnc(C)c5)CC4)C3)n2)c1 [MRK-740]
- viability at 6 day, 0.03 µM [1]: 104%
- viability at 6 day, 0.1 µM [2]: 105%
- viability at 6 day, 0.1 µM [3]: 103%
- viability at 6 day, 0.1 µM [4]: 102%
- viability at 6 day, 0.1 µM [1]: 111%
- viability at 6 day, 0.3 µM [2]: 110%
- viability at 6 day, 0.3 µM [3]: 109%
- viability at 6 day, 0.3 µM [4]: 111%
- viability at 6 day, 0.3 µM [1]: 111%
- viability at 6 day, 1 µM [2]: 112%
- viability at 6 day, 1 µM [3]: 114%
- viability at 6 day, 1 µM [4]: 108%
- viability at 6 day, 1 µM [1]: 113%
- viability at 6 day, 3 µM [2]: 108%
- viability at 6 day, 3 µM [3]: 106%
- viability at 6 day, 3 µM [4]: 109%
- viability at 6 day, 3 µM [1]: 110%
- viability at 6 day, 9.5 µM [2]: 79.4%
- viability at 6 day, 9.5 µM [3]: 79.5%
- viability at 6 day, 9.5 µM [4]: 78.6%
- viability at 6 day, 9.5 µM [1]: 80.2%
- viability at 6 day, 30 µM [2]: 18.9%
- viability at 6 day, 30 µM [3]: 20.9%
- viability at 6 day, 30 µM [4]: 18.4%
- viability at 6 day, 30 µM [1]: 17.3%
- viability at 3 day, 0.1 µM (HCC1143 cells, HCC1143, 3 day, read-out: viability Average): 93.6%
- viability at 3 day, 0.1 µM (HCC1143 cells, HCC1143, 3 day, read-out: viability Replicate 1): 95.6%
- viability at 3 day, 0.1 µM (HCC1143 cells, HCC1143, 3 day, read-out: viability Replicate 2): 90.7%
- viability at 3 day, 0.1 µM (HCC1143 cells, HCC1143, 3 day, read-out: viability Replicate 3): 94.6%
- viability at 3 day, 0.01 µM [5]: 107%
- viability at 3 day, 0.01 µM [6]: 103%
- viability at 3 day, 0.01 µM [7]: 110%
- viability at 3 day, 0.01 µM [8]: 107%
- viability at 3 day, 0.03 µM [5]: 102%
- viability at 3 day, 0.03 µM [6]: 99.9%
- viability at 3 day, 0.03 µM [7]: 101%
- viability at 3 day, 0.03 µM [8]: 104%
- viability at 3 day, 1 µM [5]: 103%
- viability at 3 day, 1 µM [6]: 104%
- viability at 3 day, 1 µM [7]: 111%
- viability at 3 day, 1 µM [8]: 94.5%
- viability at 3 day, 3 µM [5]: 89.8%
- viability at 3 day, 3 µM [6]: 92.2%
- viability at 3 day, 3 µM [7]: 107%
- viability at 3 day, 3 µM [8]: 70.5%
- viability at 3 day, 9.5 µM [5]: 37.6%
- viability at 3 day, 9.5 µM [6]: 40.7%
- viability at 3 day, 9.5 µM [7]: 51.7%
- viability at 3 day, 9.5 µM [8]: 20.5%
- viability at 3 day, 30 µM [5]: 11.6%
- viability at 3 day, 30 µM [6]: 13.2%
- viability at 3 day, 30 µM [7]: 14.9%
- viability at 3 day, 30 µM [8]: 6.61%
- viability at 6 day, 0.01 µM [9]: 102%
- viability at 6 day, 0.01 µM [10]: 107%
- viability at 6 day, 0.01 µM [11]: 100%
- viability at 6 day, 0.01 µM [12]: 99.6%
- viability at 6 day, 0.03 µM [9]: 106%
- viability at 6 day, 0.03 µM [10]: 111%
- viability at 6 day, 0.03 µM [11]: 101%
- viability at 6 day, 0.03 µM [12]: 106%
- viability at 6 day, 0.1 µM [9]: 106%
- viability at 6 day, 0.1 µM [10]: 107%
- viability at 6 day, 0.1 µM [11]: 106%
- viability at 6 day, 0.1 µM [12]: 106%
- viability at 6 day, 0.3 µM [9]: 109%
- viability at 6 day, 0.3 µM [10]: 113%
- viability at 6 day, 0.3 µM [11]: 106%
- viability at 6 day, 0.3 µM [12]: 108%
- viability at 6 day, 1 µM [9]: 103%
- viability at 6 day, 1 µM [10]: 102%
- viability at 6 day, 1 µM [11]: 101%
- viability at 6 day, 1 µM [12]: 107%
- viability at 6 day, 3 µM [9]: 63.9%
- viability at 6 day, 3 µM [10]: 63.2%
- viability at 6 day, 3 µM [11]: 58.6%
- viability at 6 day, 3 µM [12]: 69.8%
- viability at 6 day, 9.5 µM [9]: 24.9%
- viability at 6 day, 9.5 µM [10]: 23.5%
- viability at 6 day, 9.5 µM [11]: 25%
- viability at 6 day, 9.5 µM [12]: 26.3%
- viability at 6 day, 30 µM [9]: 4.91%
- viability at 6 day, 30 µM [10]: 5.1%
- viability at 6 day, 30 µM [11]: 5.11%
- viability at 6 day, 30 µM [12]: 4.53%
- viability at 3 day, 0.1 µM [13]: 110%
- viability at 3 day, 0.1 µM [14]: 122%
- viability at 3 day, 0.1 µM [15]: 110%
- viability at 3 day, 0.1 µM [16]: 97.6%
- viability at 3 day, 0.3 µM [13]: 106%
- viability at 3 day, 0.3 µM [14]: 109%
- viability at 3 day, 0.3 µM [15]: 108%
- viability at 3 day, 0.3 µM [16]: 101%
- viability at 3 day, 0.01 µM (MDA-MB-436 breast cancer cells, MDA MB436, 3 day, read-out: viability Average): 104%
- viability at 3 day, 0.01 µM (MDA-MB-436 breast cancer cells, MDA MB436, 3 day, read-out: viability Replicate 1): 123%
